Experimental data reported in patent publication US20100041617A1, “Modulating mxa expression” (priority 2004, published 2010).

How the values were obtained:
Assay type in all cases: cell-based, human
MxA promoter = experiment: MxA promoter-luciferase reporter screen in stably transfected PC-3M cells; settings: for Fold Increase in MxA Expression: MxA promoter-luciferase reporter in PC-3M cells, Control = 1.00; for expression of luciferase from the MxA promoter: PC-3M cells, DTP 1900 chemotype library screen, FIG. 8
Description: FIG. 7 outlines the high-throughput screen used for identifying small molecules that induce MxA expression. The MxA promoter was cloned upstream of luciferase, and transfected it into PC-3M human prostate carcinoma cells. A cell line that stably expressed this promoter-reporter construct was isolated. This cell line was used for testing whether test agents could induce MxA expression by screening for increased luciferase expression using a library of 1900 chemotypes. Interferon-α was a positive control for this assay. To develop a reporter system for drug screening, particularly for a high throughput assay procedure, the MxA promoter was cloned upstream of a nucleic acid segment that encoded luciferase (see FIG. 7). A nucleic acid encoding a eukaryotic selection marker (neomycin) was also inserted in the vector used for the reporter cassette. After transfecting this construct into human prostate carcinoma cells, a cell line that stably maintained the MxA reporter gene was cloned. Test agents, including a library of small molecules (the DTP 1900 chemotype library) were screened to ascertain whether any of the test agents increased luciferase expression. Of the 1900 compounds tested, 5 compounds activated the MxA promoter and increased luciferase expression. […] Methods similar to those described in Example 4 were used to identify compounds that activate MxA expression.

PC-3M cells = experiment: Cell migration (motility) assay through pores of a PET membrane, PC-3M cells; settings: for motility of PC-3M cells: FIG. 10
Method: Effect of MxA on motility of PC-3M. […] It has been reported that type I IFN could reduce cell motility (Brouty-Boyé and Zetter, 1980), one component of metastasis. To test whether PC-3 and PC-3M cells differed in motility, these two cell lines were subjected to a cell migration assay that measured the ability of cells to migrate through pores in a polyethylene terephthalate (PET) membrane. The five compounds that induced luciferase expression from the MxA were then tested to ascertain whether these compounds could also induce MxA protein expression and inhibit motility of PC-3-M prostate cancer cells. Each of the compounds could do so (FIGS. 9 and 10).

MxA protein [1] = experiment: Induction of MxA protein expression in PC-3-M prostate cancer cells by compounds; settings: FIG. 9
Method: The five compounds that induced luciferase expression from the MxA were then tested to ascertain whether these compounds could also induce MxA protein expression and inhibit motility of PC-3-M prostate cancer cells. Each of the compounds could do so (FIGS. 9 and 10).

MxA protein [2] = experiment: MxA protein induction by IFN-α, anti-MxA immunostaining, PC-3M cells; settings: 24 hours, 1000 international units of IFN-α per ml, FIG. 2B
Method: (§1) PC-3 (Figure A1-4) and PC-3M (FIG. 2B) cells were grown for 24 hours on cover slips in the presence or absence of 1000 international units of IFN-α ml^1. The cells were then fixed, permeabilized, stained with monoclonal anti-MxA and Cy-3-conjugated goat anti-mouse Ig antibody and counterstained with DAPI. Immunofluorescence was visualized with a Zeiss Axiophot microscope with a 40× objective, and the images were captured on an Optronics CCD camera.
(§2) Induction of MxA expression by interferon. To determine whether IFN-α can induce MxA expression in PC-3 and PC-3M cells, cells were treated with recombinant IFN-α and subjected to immunohistochemical analysis using anti-MxA antibody and DAPI nuclear counterstaining to locate individual cells (FIG. 2). Consistent with the western blot result, this assay detected MxA protein only in untreated PC-3 and not in untreated PC-3M cells (compare upper left panels in FIGS. 2A and 2B). […] Western blotting (not shown) confirmed the IFN did induce increased MxA protein expression in both cell lines.

PC-3 cells = experiment: Cell migration (motility) assay through pores of a PET membrane, PC-3 cells; settings: 1000 IU ml^−1 IFN-α, FIG. 3A
Description: FIG. 3A graphically illustrates the motility of PC-3M and PC-3 cells, before and after exposure to 1000 IU ml^−1 IFN-α. Mean values of percent of control PC-3M mobility are shown as bar graphs with mean percentages indicated above each bar. Each value represents the mean of two independent triplicate determinations. Error bars show range of determinations.
Effect of MxA on motility of PC-3M. […] It has been reported that type I IFN could reduce cell motility (Brouty-Boyé and Zetter, 1980), one component of metastasis. To test whether PC-3 and PC-3M cells differed in motility, these two cell lines were subjected to a cell migration assay that measured the ability of cells to migrate through pores in a polyethylene terephthalate (PET) membrane.

MxA protein [3] = experiment: MxA protein induction by IFN-α, anti-MxA immunostaining, PC-3 cells; settings: 24 hours, 1000 international units of IFN-α per ml, FIG. 2A
Method: as §1, §2

Molecule | Fold Increase in MxA Expression (MxA promoter) | other results
CC(C)CCc1c(Cl)nc(Cl)nc1Cl [Compound 2] | 1.03 fold | –
O=S(=O)(c1cccc(N=C=S)c1)c1cccc(N=C=S)c1 [Compound 3] | 1.11 fold | –
CN1CCN(CCNc2ccc(CO)c3sc4ccccc4c(=O)c23)CC1 [Compound 4] | 1.32 fold | –
CCCS(=O)(=O)Nc1ccc(Nc2c3ccccc3nc3ccccc23)c(OC)c1.CS(=O)(=O)O [Compound 6] | 3.65 fold | –
Cc1cc(=O)oc2cc(OC(=O)Nc3ccc(Cl)c(Cl)c3)ccc12 [Compound 7] | 1.18 fold | –
COc1cc2c3c(n(C)c(=O)c2cc1OC)-c1cc2c(cc1C3=O)OCO2 [Compound 8] | 1.71 fold | –
COC1CC(C)C(OC)c2cc(O)cc(c2O)NC(=O)/C(C)=C\C=C/C(C)C(OC(N)=O)/C(C)=C\C(C)C1OC (stereo not drawn) [Compound 10] | 0.40 fold | –
CS(=O)(=O)CS(=O)(=O)OCCCl [Compound 11] | 1.11 fold | –
CO[C@H]1[C@H](O)[C@@H](O)[C@H](n2c3c(Cl)cccc3c3c4c(c5c6cccc(Cl)c6[nH]c5c32)C(=O)NC4=O)O[C@@H]1CO [Compound 12] | 1.46 fold | –
COc1cc2c(cc1OC)C1C(=O)c3cc(OS(C)(=O)=O)c(OC)cc3C1N(C)C2=O (stereo not drawn) [Compound 13] | 2.15 fold | –
CCN(CC)CCCNc1nccc2c(C)c3[nH]c4ccncc4c(=O)c3cc12 [Compound 15] | 2.15 fold | –
COC1C(O)C(C)OC(OC2C(Oc3cccc4c(O)c5c(=O)oc6ccc(C)c7c(=O)oc(c34)c5c67)OC(C)C3O[C@H](c4ccccc4)OC32)C1O (stereo partly drawn) [Compound 16] | 2.25 fold | –
N/N=C(/C(=O)Nc1cccc(Cl)c1)C(C(=O)c1ccc(O)cc1O)C1OC(=O)c2ccccc21 (stereo not drawn) [Compound 17] | 1.05 fold | –
Cc1cccc(NC(=O)C(=O)C(C2OC(=O)c3ccccc32)[N+](=O)[O-])c1C (stereo not drawn) [Compound 18] | 0.79 fold | –
O=c1c2cc(O)ccc2n2nnc3ccc(NCCNCCO)c1c32 [Compound 19] | 2.08 fold | –
COc1cc(C2C(Cl)C(=O)N2NC(=O)c2ccc(N)cc2)ccc1O (stereo not drawn) [Compound 20] | 1.37 fold | –
COc1cc(C2C(Cl)C(=O)N2NC(=O)c2ccc(N)cc2)cc(Br)c1O (stereo not drawn) [Compound 21] | 1.64 fold | –
Cc1c(C(=O)/C=C/c2c(Cl)cccc2Cl)c(=O)n(-c2ccccc2)n1C [Compound 22] | 0.32 fold | –
CN(CCCn1ccnc1[N+](=O)[O-])CCCn1ccnc1[N+](=O)[O-] [Compound 23] | 1.28 fold | –

Molecule | Fold Increase in MxA Expression (MxA promoter) | other results
C=[N+](CNC(=O)CNC(=O)C(Cc1ccc([N+](=O)[O-])cc1)NC(=O)OC(C)(C)C)C(=O)CNC(=O)C(Cc1ccc([N+](=O)[O-])cc1)NC(=O)OC(C)(C)C (stereo not drawn) [Compound 24] | 0.84 fold | –
CC(=O)C1=C(N=[N+]=[N-])c2cccc3cccc(c23)C1=O [Compound 26] | 0.95 fold | –
O=[N+]([O-])c1ccc(N2N=C(c3ccc4ccccc4c3O)CC2c2ccc(Cl)cc2Cl)c([N+](=O)[O-])c1 (stereo not drawn) [Compound 27] | 2.25 fold | –
O=C1CC(=O)NC(=NN2C(=O)CSC2c2ccc(Cl)cc2)N1 (stereo not drawn) [Compound 28] | 1.40 fold | –
CC(C)(Oc1ccc(Cl)cc1)C(=O)N(C(=O)N1CCCCC1)c1ccccc1 [Compound 29] | 1.03 fold | –
Cc1ccc2c(c1)C=CC1(O2)N(c2ccccc2)C(=S)OC1(C)C (stereo not drawn) [Compound 30] | 0.85 fold | –
CC1(C)OC(=S)N(c2ccccc2)C12C=Cc1cc3ccccc3cc1O2 (stereo not drawn) [Compound 31] | 0.91 fold | –
CCN(CC)CCNc1ccc2nnn3c4ccc(OC(C)=O)cc4c(=O)c1c23 [Compound 32] | 2.64 fold | –
CCOC(=O)[C@@H]1ON2O[C@H](OC3CCCCC3c3ccccc3)C[C@H]3OC(=O)[C@@H]1C32 (stereo partly drawn) [Compound 33] | 1.03 fold | –
CCOC(=O)c1cccc(NC(=O)CBr)c1 [Compound 34] | 0.27 fold | –
C=CC[C@H]1[C@H](O[Si](C)(C)C(C)(C)C)C=CC(=O)[C@@H]1CC(=O)OCC [Compound 35] | 0.68 fold | –
O=C1C(=C(C(=O)c2ccccc2)C(=O)c2ccccc2)OC(c2ccccc2)=C1C(=O)c1ccccc1 [Compound 36] | 1.62 fold | –
COC1C(O)C(C)OC(CCOC2C(Oc3cccc4c(O)c5c(=O)oc6ccc(C)c7c(=O)oc(c34)c5c67)OC(C)C(O)C2O)C1O (stereo not drawn) [NSC 5159, 10-{3-[2-(3,5-Dihydroxy-4-methoxy-6-methyl-tetrahydro-pyran-2-yl)-ethoxy]-4,5-dihydroxy-6-methyl-tetrahydro-pyran-2-yloxy}-6-hydroxy-1 methyl-benzo[h]chromeno[5,4,3-cde]chromene-5,12-dione] | – | expression of luciferase from the MxA promoter (MxA promoter): induce expression of luciferase; motility of PC-3M cells (PC-3M cells): decrease the motility; induction of MxA protein expression (MxA protein [1]): induce expression of MxA protein
Cc1cc(Cc2cc(C)c(N)cc2N)c(N)cc1N [NSC 7215, methylene-bis(2,4-amino-5-methyl-benzene)] | – | expression of luciferase from the MxA promoter (MxA promoter): induce expression of luciferase; motility of PC-3M cells (PC-3M cells): decrease the motility; induction of MxA protein expression (MxA protein [1]): induce expression of MxA protein
O=[N+]([O-])c1ccc(Nc2nc3ccccc3s2)cc1 [NSC 34444, benzothiazol-2-yl-(4-nitro-phenyl)-amine] | – | expression of luciferase from the MxA promoter (MxA promoter): induce expression of luciferase
COc1ccc2cc(COCCC(=O)O)ccc2c1 [NSC 46669, 3-(6-Methoxy-naphthalen-2-ylmethoxy)-propionic acid] | – | expression of luciferase from the MxA promoter (MxA promoter): induce expression of luciferase; motility of PC-3M cells (PC-3M cells): decrease the motility; induction of MxA protein expression (MxA protein [1]): induce expression of MxA protein
O=C(O)c1ccc(Oc2nc3ccccc3s2)cc1 [NSC 122335, 4-(benzothiazol-2-yloxy)-benzoic acid] | – | expression of luciferase from the MxA promoter (MxA promoter): induce expression of luciferase; motility of PC-3M cells (PC-3M cells): decrease the motility; induction of MxA protein expression (MxA protein [1]): induce expression of MxA protein
IFN-α | – | level of MxA protein after exposure to IFN-α (MxA protein [2]): became detectable for the first time; PC-3 cell motility (PC-3 cells): reduced its motility to levels below that seen when no IFN was present; PC-3M cell motility (PC-3M cells; 1000 IU ml^−1 IFN-α, FIG. 3A): reduced PC-3M cell motility to a level comparable to that of PC-3 cells; level of MxA protein after exposure to IFN-α (MxA protein [3]): increased substantially
